From patent US4337266A, “Cytostatic terminally bifunctional sugar alcohols process for preparing them and pharmaceutical compositions containing them” (priority 1979, dated 1982)

Experiments:
[1] = Toxicity tests, LD50 on mice after intraperitoneal administration; settings: mouse, in vivo, ip
Description: LD50 values on mice after intraperitoneal administ-

[2] = test system: Walker intramuscular carcinosarcoma; assay: Activity against Walker intramuscular carcinosarcoma; assay type: in vivo
Description: Activity against Walker intramuscular carcinosarcoma

S-180 subcutan sarcoma = assay: Activity against S-180 subcutan sarcoma; assay type: in vivo; settings: 8 × 50 mg/kg/ip
Description: |Activity against S-180 subcutan sarcoma

CO[C@H]([C@H](OC)[C@@H](O)CBr)[C@H](O)CBr [DMDBD, 1,6-dibromo-1,6-dideoxy-3,4-dimethyl dulcitol]
LD50 [1]: 700 mg/kg | Antitumour activity ([2]; 1 × 50 mg/kg/ip): 80% | Antitumour activity ([2]; 1 × 100 mg/kg/ip): 99% | Antitumour activity (S-180 subcutan sarcoma): 90%

CO[C@H]([C@H](OC)[C@@H]1CO1)[C@H]1CO1 [DMDAD, 1,2-5,6-dianhydro-3,4-dimethyl dulcitol]
LD50 [1]: 680 mg/kg | Antitumour activity ([2]; 1 × 50 mg/kg/ip): 55% | Antitumour activity ([2]; 1 × 100 mg/kg/ip): 80% | Antitumour activity (S-180 subcutan sarcoma): 80%

CO[C@H]([C@@H]1CO1)[C@H]1CO1 [MMDAX, 1,2-4,5-dianhydro-3-methyl-xylitol]
LD50 [1]: 500 mg/kg | Antitumour activity ([2]; 1 × 100 mg/kg/ip): 90% | Antitumour activity (S-180 subcutan sarcoma): 75%
